Results: US20170105920A1, “COSMETIC METHOD USING METAL PHTHALOCYANINE DERIVATIVE” (I'FORET CO., LTD., priority 2010, published 2017)

Experiment: Effectiveness test on suppression of fading, one week at 50° C., visual evaluation
Type: physicochemical
Protocol: Each beauty essence was kept for one week at 50° C. and its stability was visually evaluated compared to the beauty essence immediately after preparation.
Expert testers judged the beauty essences tested on a scale of three as specified below: […]

Compound | Judgment of appearance (anti-fading) (anti-fading component 0.10% in recipe of Example 4 (0.01% iron phthalocyanine tetracarboxylic acid)) | fading (in words) (component blended by 0.1%) | fading (in words) (component blended by 0.2%) | fading (in words) (component blended by 0.05%)
O=C([O-])CN(CCN(CC(=O)O)CC(=O)O)CC(=O)[O-].[Na+].[Na+] [EDTA-2Na, sodium EDTA-2] | Δ~X | Marked fading | some fading | –
O=P(O)(O)O[C@H]1[C@H](OP(=O)(O)O)[C@@H](OP(=O)(O)O)[C@H](OP(=O)(O)O)[C@@H](OP(=O)(O)O)[C@H]1OP(=O)(O)O [Phytic acid, phytic acid] | – | hardly any fading | – | hardly any fading
